# Test results published in article PMC5369982, “Near infrared fluorescent imaging of choline kinase alpha expression and inhibition in breast tumors” (Oncotarget, 2017).
# Columns and labels:
# 4175-Luc+ tumors = experiment: Tumor growth inhibition; assay type: in vivo, mouse; settings: 5-day i.p. regimen from day 3 after inoculation; MN58b 2 mg/kg/day, JAS239 4 mg/kg/day
# Description: All animal studies were approved by the Institutional Animal Care and Use Committee of the University of Pennsylvania. Six week old female athymic nude Foxn1^nu/nu mice (National Cancer Institute) were housed in a temperature-controlled environment with 12 h light/dark cycle. Anesthesia was induced using 2% isoflurane in oxygen for all experiments. For MCF7 tumors, mice were supplemented with 60-day release 0.36 mg 17β-estradiol tablets (Innovative Research of America) using a trochar in the nape of the neck. After 1 week, 4 × 10^6 cells in Matrigel (BD Biosciences) were inoculated into the left (CK+) and contralateral (EV) mammary fat pads. Subcutaneous xenografts, including those analyzed in MRI/MRS studies, were grown on the shoulder to allow for cloaking of the kidneys during optical imaging studies. Tumor growth was determined via caliper measurement of three orthogonal dimensions and volume calculated as length * width * height * π/6.
# A cohort of 15 mice was inoculated with 4175-Luc+ tumors. Beginning 3 days post-inoculation, animals received a 100-μL i.p. injection of either control DMSO/saline, 2 mg/kg MN58b or 4 mg/kg JAS239 in DMSO/saline daily for 5 days. Tumor volumes were assessed by caliper measurement.
# 4175-Luc+ cells = experiment: Cell viability, MTT assay; assay type: cell-based, human; settings: 17 h, ± SEM, 3 experiments
# Description: (§1) MCF7 cells were plated for Trypan exclusion assays at 1.0 × 10^6 cells/well in 6-well plates and treated with MN58b or JAS239, synthesized in house. At 17 h, cells were collected by trypsinization, stained with Trypan Blue, and counted using a Neubauer hemocytometer. For 3-(4,5-Dimethylthiazol-2-yl)-2,5-diphenyltetrazolium bromide (MTT) assays, cells in 96-well plates (7.5 × 10^4 cells/well) were treated with JAS239 or MN58b overnight, and stained with 20 μL of 5 mg/mL MTT (Sigma-Aldrich) for 2 h, lysed with DMSO and scanned for absorbance using a SpectraMax M5 plate reader (Molecular Devices) at 550 nm, subtracting background absorbance at 690 nm from each sample.
# (§2) Supplementary Figure 2: Breast cancer cell viability in response to ChoK inhibitors. (A–D) Cell viability measurements via […]
# (§3) (A) or JAS239 (B). MTT assays were performed on MDA-MB-231 and 4175-Luc+ (C, D) cells exposed to MN58b (C) or JAS239 (D).
# (§4) Values are reported relative to untreated control groups and represent ± SEM for 3 separate experiments. At higher JAS239 concentrations, the MTT assay was used as JAS239 interfered with Trypan blue counting. There was no overlap in absorbance readings between the MTT formazan product and JAS239.
# (§5) (1 picture or pasted object on this page, not shown here)
# MDA-MB-231 tumors = experiment: Histopathology of treated tumors (H&E, Ki67, caspase-3); assay type: in vivo, mouse; settings: 5 days i.p.; MN58b 2 mg/kg, JAS239 4 mg/kg; vs control
# Description: A cohort of 15 mice was inoculated with MDA-MB-231 cells. When a volume of 300 μL was reached, tumors were scanned using MRS. Tumor volumes were measured using T2-weighted images. The animals were separated into treatment groups, and for 5 consecutive days each group was injected i.p. with 100 μL of DMSO/saline vehicle (n = 5), 2 mg/kg MN58b (n = 4), or 4 mg/kg JAS239 (n = 3). Initial cohort sizes were 5 per condition, but some animals had to be removed from the study because the treatment was so effective that we were unable to place voxels within post-treatment tumors that were too small. Follow-up MRI/MRS scanning was performed on day 7 to assess tumor growth inhibition and changes in metabolite levels. After imaging, blood was collected into heparin-coated tubes by cardiac puncture. Resected tumors were embedded in Optimum Cryo-Temperature (Sakura Finetek), flash-frozen in liquid nitrogen, and stored at –80 °C. Blood samples were submitted to the Ryan Veterinary Clinic Diagnostic labs for toxicology.
# Hematoxylin and eosin staining and immunohistochemistry was performed as described previously. Caspase-3 (R&D Systems AF835) and Ki67 (Abcam ab16667) antibody staining was performed on a Bond Max automated staining system (Leica Microsystems) using the Bond Intense R staining kit (Leica Microsystems DS9263). An Aperio Scan Scope OS (Aperio Technology) was used to scan slides, and the Image Scope nuclear staining algorithm (version 9; Aperio Technology) was used to quantify Ki67 and caspase-3 positive nuclei in representative regions of each slide.
# ChoKα = ChoKα (Homo sapiens, UniProt P35790); experiment: Confocal microscopy colocalization of JAS239 with anti-ChoKα antibody in fixed MDA-MB-231 cells; assay type: cell-based; parameters: endogenous in cells; host or cells: MDA-MB-231; settings: cells pre-treated with ChoKα antibody
# Description: MDA-MB-231 cells plated on sterile glass coverslips were fixed in 4% paraformaldehyde, permeabilized in 0.2% Triton X-100, and blocked in 1% BSA. Staining with 0 or 200 μM JAS239 was performed 30 min prior or 1 h after application of rabbit anti-human ChoKα antibody (ab38290; Abcam, 1:1000 dilution). Coverslips were then stained with goat anti-rabbit antibody conjugated to Texas Red (Vector Laboratories; TI-1000, 1:500), dehydrated, and mounted with VectaShield (Vector Laboratories). Confocal micrographs were acquired on a Zeiss LSM 510META NLC using excitation (Ex.) 543 nm and emission (Em.) 565–615 nm for Texas Red and Ex. 633 nm and Em. > 650 nm for JAS239. The Coloc 2 FIJI software plug-in was used to assess colocalization of the anti-ChoKα antibody with JAS239 by calculating Pearson's Correlation Coefficients and Manders’ Colocalization Coefficients for at least 3 separate ROIs. […]
# strongly correlated with ChoKα, unless fixed cells are pre-incubated with ChoKα antibody (Ab). (B) Manders’ Colocalization Coefficients calculated for the Texas-Red channel confirm that the majority of ChoKα is bound by JAS239 when JAS239 is present. (C) Manders’ Colocalization Coefficients calculated for the JAS239 channel indicate that the majority of JAS239 that is present intracellularly is co-distributed with ChoKα. Values represent ± SEM for 3 separate fields of view. […]
# MCF7-CK+ cells = experiment: Cell viability, Trypan blue exclusion; assay type: cell-based, human; settings: 17 h, ± SEM, 3 experiments
# Description: as §1, §2, §3, §4, §5
# MCF7-EV cells = experiment: Cell viability, Trypan blue exclusion; assay type: cell-based, human; settings: 17 h, ± SEM, 3 experiments
# Description: as §1, §2, §3, §4, §5
# [1] = test system: MDA-MB-231 tumor xenografts; parameters: method as in PMID 16397258; settings: 4 mg/kg; cited from earlier work
# Sequence of ChoKα (P35790 whole entry): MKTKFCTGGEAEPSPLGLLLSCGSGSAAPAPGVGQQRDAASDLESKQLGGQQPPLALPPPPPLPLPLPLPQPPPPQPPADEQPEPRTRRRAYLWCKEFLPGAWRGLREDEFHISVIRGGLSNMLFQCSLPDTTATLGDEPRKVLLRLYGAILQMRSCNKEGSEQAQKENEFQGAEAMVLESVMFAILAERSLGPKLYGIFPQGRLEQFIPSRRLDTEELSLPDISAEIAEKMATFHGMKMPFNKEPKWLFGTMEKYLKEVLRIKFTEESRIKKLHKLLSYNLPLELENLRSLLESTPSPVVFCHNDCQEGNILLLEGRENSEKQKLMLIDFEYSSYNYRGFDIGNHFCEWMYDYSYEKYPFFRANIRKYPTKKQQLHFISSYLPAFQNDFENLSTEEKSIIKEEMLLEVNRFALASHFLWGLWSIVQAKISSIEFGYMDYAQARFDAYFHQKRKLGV
Compound,Tumor volume compared to control animals (4175-Luc+ tumors),EC50 (4175-Luc+ cells),Caspase-3 levels (MDA-MB-231 tumors),Cell density (H&E) (MDA-MB-231 tumors),Percentage of Ki67-positive cells (MDA-MB-231 tumors),JAS239 retention after ChoKα antibody pre-treatment (ChoKα),EC50 (MCF7-CK+ cells),EC50 (MCF7-EV cells),PC levels in tumor xenografts [1]
CC1(C)C(=C/C=C/C=C/C=C/C2=[N+](CCO)c3ccccc3C2(C)C)N(CCO)c2ccccc21 [JAS239],significantly smaller tumor volumes,35 ± 21.6 µM,higher caspase-3 levels,significant reduction in cell density,significantly reduced,marked reduction in JAS239 retention,5.33 ± 0.84 µM,4.04 ± 0.55 µM,–
MN58b [reference compound],significantly smaller tumor volumes,20.7 ± 6.4 µM,higher caspase-3 levels,significant reduction in cell density,significantly reduced,–,6.86 ± 0.43 µM,3.29 ± 0.48 µM,lower PC levels
